Data reported in patent US20240158348A1, “HERBICIDAL CYCLIC AMIDES N-SUBSTITUTED WITH A HALOALKYLSULFONYLANILIDE GROUP” (FMC Corporation, priority 2021, published 2024).

Key:
Assay type in all cases: in vivo
[1] = system: wheat (Triticum aestivum); assay: Test C postemergence, wheat; details: for Wheat plant response rating: visual injury, 0 to 100 scale (0 no effect, 100 complete control); for Plant response rating (0 to 100 scale), Wheat: 0 is no effect, 100 is complete control
Procedure, shortened: (§1)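 Plants grown in a sand and loam soil blend received the formulated test chemicals either as a preemergence soil-directed spray or postemergence at 2 to 10 cm height. After 10 or 12 greenhouse days, injury was assessed visually, with 100 meaning complete control.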

[2] = system: ragweed (common ragweed, Ambrosia artemisiifolia); assay: Test C preemergence, ragweed; details: 0 is no effect, 100 is complete control
Procedure, shortened: (§2)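 Pre: soil sprayed at seeding. Post: seedlings treated at 1–2 leaves (2–10 cm). Vehicle non-phytotoxic solvent mix with surfactant; loam–sand medium; greenhouse; visual injury read at 10 or 12 days, scale 0–100.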

[3] = system: foxtail, giant (giant foxtail, Setaria faberi); assay: Test C postemergence, giant foxtail; details: for Foxtail, Giant plant response rating: 31 g ai/ha Postemergence, visual injury, 0 to 100 scale (0 no effect, 100 complete control); for Plant response rating (0 to 100 scale), Foxtail, Giant: 125 g ai/ha Postemergence, 0 is no effect, 100 is complete control
[4] = system: blackgrass (Alopecurus myosuroides); assay: Test C postemergence, blackgrass; details: 31 g ai/ha Postemergence; visual injury, 0 to 100 scale (0 no effect, 100 complete control)
Procedure, shortened: as §1

soybean (Glycine max) = assay: Test C postemergence, soybean; details: for Soybean plant response rating: visual injury, 0 to 100 scale (0 no effect, 100 complete control); for Plant response rating (0 to 100 scale), Soybean: 0 is no effect, 100 is complete control
[5] = system: goosegrass (Eleusine indica); assay: Test C preemergence, goosegrass; details: 0 is no effect, 100 is complete control
Procedure, shortened: as §2

corn (Zea mays) [6] = assay: Test C preemergence, corn; details: 0 is no effect, 100 is complete control
Procedure, shortened: as §2

corn (Zea mays) [7] = assay: Test C postemergence, corn; details: for Corn plant response rating: 31 g ai/ha Postemergence, visual injury, 0 to 100 scale (0 no effect, 100 complete control); for Plant response rating (0 to 100 scale), Corn: 125 g ai/ha Postemergence, 0 is no effect, 100 is complete control

| SMILES | Wheat plant response rating ([1]; 31 g ai/ha Postemergence) | Wheat plant response rating ([1]; 125 g ai/ha Postemergence) | Plant response rating (0 to 100 scale), Ragweed ([2]; 31 g ai/ha Preemergence) | Plant response rating (0 to 100 scale), Ragweed ([2]; 125 g ai/ha Preemergence) | Foxtail, Giant plant response rating [3] | Plant response rating (0 to 100 scale), Foxtail, Giant [3] | Blackgrass plant response rating [4] | Soybean plant response rating (soybean (Glycine max); 31 g ai/ha Postemergence) | Soybean plant response rating (soybean (Glycine max); 125 g ai/ha Postemergence) | Plant response rating (0 to 100 scale), Goosegrass ([5]; 31 g ai/ha Preemergence) | Plant response rating (0 to 100 scale), Goosegrass ([5]; 125 g ai/ha Preemergence) | Plant response rating (0 to 100 scale), Corn (corn (Zea mays) [6]; 31 g ai/ha Preemergence) | Plant response rating (0 to 100 scale), Corn (corn (Zea mays) [6]; 125 g ai/ha Preemergence) | Corn plant response rating (corn (Zea mays) [7]) | Plant response rating (0 to 100 scale), Corn (corn (Zea mays) [7]) | Plant response rating (0 to 100 scale), Wheat ([1]; 125 g ai/ha Postemergence) | Plant response rating (0 to 100 scale), Soybean (soybean (Glycine max); 125 g ai/ha Postemergence) |
| --- | --- | --- | --- | --- | --- | --- | --- | --- | --- | --- | --- | --- | --- | --- | --- | --- | --- |
| Cc1cc(C)c(N2CCC(OC3CC3)C2=O)cc1NS(=O)(=O)C(F)(F)F (single isomer, unassigned) [Compound 29] | 70 | 70 | 80 | 90 | 90 | 90 | 60 | 60 | 100 | 100 | 100 | 80 | 90 | 80 | 90 | – | – |
| Cc1cc(C)c(N2CCC(OC3CC3)C2=O)cc1NS(=O)(=O)C(F)(F)F (single isomer, unassigned) [Compound 30] | 70 | 70 | 100 | 100 | 50 | 80 | 50 | 50 | 60 | 90 | 100 | 90 | 90 | 90 | 90 | – | – |
| Cc1cc(C)c(N2CC/C(=N\O)C2=O)cc1NS(=O)(=O)C(F)(F)F [Compound 10, 1,1,1-trifluoro-N-[5-[3-(hydroxyimino)-2-oxo-1-pyrrolidinyl]-2,4-dimethylphenyl]methanesulfonamide] | 80 | – | 0 | 30 | 40 | 90 | 60 | 80 | – | 80 | 100 | 30 | 90 | 90 | 90 | 80 | 80 |
| C=CCO/N=C1\CCN(c2cc(NS(=O)(=O)C(F)(F)F)c(C)cc2C)C1=O [Compound 11] | 80 | – | 80 | 90 | 60 | 90 | 40 | 100 | – | 100 | 100 | 50 | 100 | 90 | 100 | 90 | 100 |
| CCO/N=C1\CCN(c2cc(NS(=O)(=O)C(F)(F)F)c(C)cc2C)C1=O [Compound 12, N-[5-[3-(ethoxyimino)-2-oxo-1-pyrrolidinyl]-2,4-dimethylphenyl]-1,1,1-trifluoromethanesulfonamide] | 80 | – | 100 | 100 | 90 | 90 | 80 | 100 | – | 90 | 100 | 70 | 100 | 100 | 100 | 90 | 100 |
| C#CCO/N=C1\CCN(c2cc(NS(=O)(=O)C(F)(F)F)c(C)cc2C)C1=O [Compound 13, N-[2,4-dimethyl-5-[2-oxo-3-[(2-propyn-1-yloxy)imino]-1-pyrrolidinyl]phenyl]-1,1,1-trifluoromethanesulfonamide] | 90 | – | 50 | 100 | 60 | 90 | 80 | 100 | – | 90 | 100 | 40 | 100 | 100 | 100 | 90 | 100 |
| Cc1cc(C)c(N2CCC(O)C2=O)cc1NS(=O)(=O)C(F)(F)F (stereo not drawn) [Compound 14] | 60 | – | 20 | 60 | 20 | 90 | 10 | 80 | – | 90 | 100 | 10 | 100 | 70 | 90 | 60 | 80 |
